Measured values from patent US20250059610A1, “METHODS OF TREATING TUMOR” (priority 2017, published 2025).

System: stage IV or recurrent NSCLC
Assay: Phase 3 study of first-line nivolumab versus platinum-based chemotherapy: efficacy
Type: in vivo, human
Description: The primary endpoint was progression-free survival (PFS) per blinded independent central review in patients with ≥5% PD-L1 expression.
Eligible adult patients had histologically confirmed squamous or nonsquamous stage IV/recurrent NSCLC, ECOG PS 0-1, and measurable disease per RECIST 1.1,^15 and had received no prior systemic anticancer therapy as primary therapy for advanced or metastatic disease. Patients with central nervous system metastases were eligible if adequately treated and neurologically returned to baseline ≥2 weeks before randomization. Eligible patients had to be off corticosteroids or on a stable or decreasing dose of ≤10 mg daily prednisone (or equivalent). […] Patients with an autoimmune disease or known EGFR mutations or ALK translocations sensitive to available targeted therapy were excluded. Only patients with ≥1% PD-L1 expression were randomized.
Maintenance pemetrexed was allowed in patients with nonsquamous NSCLC who had stable disease or response after cycle 4. […] Concomitant systemic corticosteroid treatment (<3-week courses) was allowed for non-autoimmune conditions, including but not limited to treatment-related adverse events (AEs) with a potential immunologic cause.
Randomization was stratified by PD-L1 expression (<5% vs. ≥5%) and tumor histology (squamous vs. nonsquamous).
The primary endpoint was PFS based on assessment by blinded independent central review (BICR) in patients with ≥5% PD-L1 expression. Secondary endpoints included PFS per BICR among all randomized patients (≥1% PD-L1 expression), OS among patients with ≥5% PD-L1 expression and among all randomized patients, and ORR per BICR among patients with ≥5% PD-L1 expression.
Tumor response was assessed every 6 weeks until week 48 and every 12 weeks thereafter. Safety assessments included the recording of AEs, graded according to the National Cancer Institute Common Terminology Criteria for Adverse Events, version 4.0.
For efficacy analyses, patients were grouped according to TMB tertile distribution.
Comparison of PFS and OS between treatment groups was performed by two-sided log-rank tests stratified by PD-L1 expression level (≥5% vs. <5%; for endpoints in all randomized patients) and tumor histology. A stratified Cox proportional-hazards model including the randomized treatment arm as a single covariate was used to estimate HRs and their associated 95% CIs. The Kaplan-Meier method was used to estimate survival curves. ORRs were compared between treatment arms with a two-sided, stratified Cochran-Mantel-Haenszel test. The Clopper-Pearson method was used to estimate ORRs and their exact 95% CIs.

[1] = exploratory subgroup with ≥50% PD-L1 expression
[2] = patients with high TMB (upper tertile)
[3] = patients with ≥5% PD-L1 expression
[4] = ≥5% PD-L1 expression, responders

Which results are given for Nivolumab?
Complete or partial response (TMB High): 22 (46.8) n (%); Progressive disease (TMB High): 7 (14.9) n (%); Response could not be determined (TMB High): 3 (6.4) n (%); Stable disease (TMB High): 15 (31.9) n (%); Complete or partial response (TMB Low): 11 (17.7) n (%); Progressive disease (TMB Low): 21 (33.9) n (%); Response could not be determined (TMB Low): 5 (8.1) n (%); Stable disease (TMB Low): 25 (40.3) n (%); Complete or partial response (TMB Low/medium (pooled)): 25 (22.5) n (%); Progressive disease (TMB Low/medium (pooled)): 32 (28.9) n (%); Response could not be determined (TMB Low/medium (pooled)): 9 (8.1) n (%); Stable disease (TMB Low/medium (pooled)): 45 (40.5) n (%); Complete or partial response (TMB Medium): 14 (28.6) n (%); Progressive disease (TMB Medium): 11 (22.4) n (%); Response could not be determined (TMB Medium): 4 (8.2) n (%); Stable disease (TMB Medium): 20 (40.8) n (%); ORR [1]: 34.1%; OS hazard ratio, nivolumab versus chemotherapy [1]: 0.90; PFS hazard ratio, nivolumab versus chemotherapy [1]: 1.07; median PFS (patients with high TMB): 9.7 months; PFS hazard ratio, nivolumab versus chemotherapy [2]: 0.62; objective response rate (ORR) [2]: 46.8%; OS hazard ratio, nivolumab versus chemotherapy [3]: 1.02; Objective response, % of patients (95% CI) [3]: 26.1 (20.3-32.5) %; Objective response, No. of patients [3]: 55; PFS hazard ratio, nivolumab versus chemotherapy [3]: 1.15; median OS [3]: 14.4 months; median PFS [3]: 4.2 months; Objective response, % of patients (95% CI) (patients with ≥5% PD-L1 expression, listed as nivolumab): 26.1%; Best overall response: Complete response (≥5% PD-L1 expression): 4 (1.9) no. (%); Best overall response: Could not be determined (≥5% PD-L1 expression): 17 (8.1) no. (%); Best overall response: Partial response (≥5% PD-L1 expression): 51 (24.2) no. (%); Best overall response: Progressive disease (≥5% PD-L1 expression): 58 (27.5) no. (%); Best overall response: Stable disease (≥5% PD-L1 expression): 81 (38.4) no. (%); Proportion of patients with a best response of progressive disease (≥5% PD-L1 expression): 27.5%; Objective response, estimated odds ratio (95% CI) (≥5% PD-L1 expression, nivolumab versus chemotherapy): 0.70 (0.46-1.06); Duration of response, median [4]: 12.1 mo; Time to response, median [4]: 2.8 mo; Time to response, range [4]: 1.2-13.2 mo
